Read-outs that look alike come from different tables or passages of the source.
Columns and labels:
[1] = system: MCF-7; experiment: MTT cytotoxic assay, breast MCF-7 cell line; assay type: cell-based, human; conditions: Homo sapiens, MCF7, read-out: (IC50 μM)±SD MCF-7
Experimental: (§1) To investigate cytotoxic activity of the final target compounds 9a–r, MTT assay was performed. Three different cell lines were used, leukaemia (K-562), breast (MCF-7) and colon (HT-29) cell lines. Cisplatin and erlotinib were the reference drugs used in this study.
(§2) All target compounds 9a–r were screened against three different cancer cell lines, leukaemia (K-562), breast (MCF-7), and colon (HT-29). MTT assay was used. Both cisplatin and erlotinib were used as the reference drugs. Cytotoxicity results are recorded in Table 1.

[2] = target: T1, STAT5a (Homo sapiens, UniProt P42229); experiment: TransAM STAT5a activation assay on nuclear extracts of treated cells; assay type: cell-based; conditions: 24 h, read-out: Inhibition IC50 (µM) STAT5a
T1 construct: endogenous in cells; host or cells: K-562 and MCF-7 cells (nuclear extracts)
T1 sequence (P42229 1-794): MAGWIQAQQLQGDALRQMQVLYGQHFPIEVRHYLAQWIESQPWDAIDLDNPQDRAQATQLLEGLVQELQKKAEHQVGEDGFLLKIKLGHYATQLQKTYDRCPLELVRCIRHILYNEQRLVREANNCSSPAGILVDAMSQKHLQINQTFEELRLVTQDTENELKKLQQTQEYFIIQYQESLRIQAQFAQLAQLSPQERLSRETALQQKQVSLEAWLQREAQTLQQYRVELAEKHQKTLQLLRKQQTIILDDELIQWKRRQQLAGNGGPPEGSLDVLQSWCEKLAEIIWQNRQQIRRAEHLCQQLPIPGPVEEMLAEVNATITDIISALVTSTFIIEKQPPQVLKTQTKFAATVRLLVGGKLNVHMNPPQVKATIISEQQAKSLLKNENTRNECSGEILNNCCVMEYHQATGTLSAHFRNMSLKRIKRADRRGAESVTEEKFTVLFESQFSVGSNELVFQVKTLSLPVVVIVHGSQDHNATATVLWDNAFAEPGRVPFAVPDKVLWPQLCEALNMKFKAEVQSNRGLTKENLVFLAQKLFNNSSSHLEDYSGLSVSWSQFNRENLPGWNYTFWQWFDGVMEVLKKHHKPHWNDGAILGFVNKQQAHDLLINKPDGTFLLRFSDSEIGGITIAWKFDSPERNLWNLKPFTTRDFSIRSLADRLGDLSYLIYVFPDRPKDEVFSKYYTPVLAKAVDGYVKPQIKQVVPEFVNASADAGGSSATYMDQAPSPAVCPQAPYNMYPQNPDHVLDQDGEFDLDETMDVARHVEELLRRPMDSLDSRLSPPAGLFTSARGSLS
Experimental: (§3) Both K-562 and MCF-7 cell lines were seeded overnight in plates, then 10 µM of test compounds (9a and 9r for MCF-7 cells; 9d, 9f, and 9n for K-562 cells) or reference drug pacritinib was added for 24 h. A nuclear extract kit was used to extract nuclear fractions from treated cells using the manufacture’s procedure. STAT3 and STAT5a activations were analysed using the collected nuclear extracts (20 µg) through TransAM STAT3 and STAT5a activation assay guided by the manufacture’s protocol. The obtained results were expressed in the form of mean ± SD. Each experiment was done in triplicate.
(§4) Pacritinib, an inhibitor for both STAT3 and STAT5a[49] was used in this study as a reference drug.

[3] = system: K-562; experiment: MTT cytotoxic assay, leukaemia K-562 cell line; assay type: cell-based; conditions: Homo sapiens, K562, read-out: (IC50 μM)±SD K-562
Experimental: as §1, §2

[4] = in vitro; conditions: human
[5] = target: T2, STAT3 (Homo sapiens, UniProt P40763); experiment: TransAM STAT3 activation assay on nuclear extracts of treated cells; assay type: cell-based; conditions: 24 h, read-out: Inhibition IC50 (µM) STAT3
T2 construct: endogenous in cells; host or cells: K-562 and MCF-7 cells (nuclear extracts)
T2 sequence (P40763 whole entry): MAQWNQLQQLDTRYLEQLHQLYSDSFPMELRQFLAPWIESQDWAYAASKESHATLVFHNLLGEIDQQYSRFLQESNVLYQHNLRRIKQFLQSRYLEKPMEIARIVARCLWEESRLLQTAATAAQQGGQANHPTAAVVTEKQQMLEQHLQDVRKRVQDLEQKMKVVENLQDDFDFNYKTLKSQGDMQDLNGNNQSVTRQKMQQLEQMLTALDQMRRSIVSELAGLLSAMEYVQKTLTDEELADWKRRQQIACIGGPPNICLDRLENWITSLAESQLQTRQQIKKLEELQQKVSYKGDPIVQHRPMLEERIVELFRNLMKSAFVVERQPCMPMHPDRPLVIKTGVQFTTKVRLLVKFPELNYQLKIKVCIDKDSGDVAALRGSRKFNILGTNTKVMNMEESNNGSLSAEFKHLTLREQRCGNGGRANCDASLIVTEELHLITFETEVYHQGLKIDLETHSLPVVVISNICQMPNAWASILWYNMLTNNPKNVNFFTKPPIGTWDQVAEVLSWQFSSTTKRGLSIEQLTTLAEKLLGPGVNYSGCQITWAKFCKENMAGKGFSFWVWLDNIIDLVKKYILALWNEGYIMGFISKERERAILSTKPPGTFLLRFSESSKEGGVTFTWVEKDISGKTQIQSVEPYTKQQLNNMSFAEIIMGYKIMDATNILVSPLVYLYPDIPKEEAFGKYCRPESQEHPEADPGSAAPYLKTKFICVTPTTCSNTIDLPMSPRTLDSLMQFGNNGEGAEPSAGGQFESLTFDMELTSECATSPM
Experimental: as §3, §4

[6] = system: HT-29; experiment: MTT cytotoxic assay, colon HT-29 cell line; assay type: cell-based; conditions: Homo sapiens, read-out: (IC50 μM)±SD HT-29
Experimental: as §1, §2

[7] = system: STAT3; parameters: method as in PMID 20067773; conditions: breast cancer cells; read-out: EC50, inhibition of STAT3 function; cited from earlier work
[8] = system: STAT3; parameters: method as in PMID 20067773; conditions: myeloma cancer cells; read-out: EC50, inhibition of STAT3 function; cited from earlier work
[9] = system: human leukaemia cells; parameters: method as in earlier work; conditions: read-out: CC50, cytotoxic activity; cited from earlier work

Row | IC50 ([2]; MCF7 cells) [µM] | IC50 [4] [µM] | IC50 ([5]; MCF7 cells) [µM] | melting point [°C] | IC50 ([2]; K562 cells) [µM] | IC50 ([5]; K562 cells) [µM] | Structure (SMILES) | IC50 [1] [µM] | IC50 [3] [µM] | IC50 [6] [µM] | EC50 [7] [µM] | EC50 [8] [µM] | CC50 [9] [nM]
1 | 83.8 ± 3.28 | 17.1 | 243 ± 9.24 | 226 to 228 |  |  | COc1ccc(/C=C/C(=O)c2ccc(NC(=O)CSc3nc(-c4ccc(C)cc4)cc(-c4ccc(OC)cc4)n3)cc2)cc1 [Compound 9a, (ZE)-2-[4-(4-Methoxyphenyl)-6-p-tolylpyrimidin-2-ylthio]-N-{4-[3-(4 methoxyphenyl)acryloyl]phenyl}acetamide] | 3.56 ± 0.14 | 18.4 ± 0.76 | 2.2 ± 0.04 |  |  | 
2 |  | 29.2 to 40.1 |  | 183 to 185 | 116 ± 4.13 | 160 ± 4.59 | COc1ccc(/C=C/C(=O)c2ccc(NC(=O)CSc3nc(-c4ccc(OC)cc4)cc(-c4ccc([N+](=O)[O-])cc4)n3)cc2)cc1 [Compound 9d, (ZE)-2-[4-(4-Methoxyphenyl)-6-(4-nitrophenyl)pyrimidin-2-ylthio]-N-{4-[3-(4-methoxyphenyl)acryloyl]phenyl}acetamide] | 14.2 ± 0.74 | 0.77 ± 0.03 | 25.9 ± 1.67 |  |  | 
3 |  | 29.2 to 40.1 |  | 254 to 256 | 77.7 ± 2.91 | 245 ± 11.1 | COc1ccc(-c2cc(-c3ccc([N+](=O)[O-])cc3)nc(SCC(=O)Nc3ccc(C(=O)/C=C/c4cc(OC)c(OC)c(OC)c4)cc3)n2)cc1 [Compound 9f, (ZE)-2-[4-(4-Methoxyphenyl)-6-(4-nitrophenyl)pyrimidin-2-ylthio]-N-{4-[3-(3,4,5-trimethoxyphenyl)acryloyl]phenyl}acetamide] | 5.77 ± 0.22 | 1.37 ± 0.03 | 9.41 ± 0.43 |  |  | 
4 |  | 29.2 to 40.1 |  | 147 to 149 | 50.7 ± 1.26 | 113 ± 3.22 | COc1ccc(/C=C/C(=O)c2ccc(NC(=O)CSc3nc(-c4ccc(Cl)cc4)cc(-c4ccc([N+](=O)[O-])cc4)n3)cc2)cc1OC [Compound 9n, (ZE)-2-[4-(4-Chlorophenyl)-6-(4-nitrophenyl)pyrimidin-2-ylthio]-N-{4-[3-(3,4-dimethoxyphenyl)acryloyl]phenyl}acetamide] | 17.4 ± 0.75 | 1.05 ± 0.02 | 2.1 ± 0.06 |  |  | 
5 | 63.2 ± 1.57 | 29.2 to 40.1 | 149 ± 3.81 | 221 to 223 |  |  | COc1cc(/C=C/C(=O)c2ccc(NC(=O)CSc3nc(-c4ccc(Cl)cc4)cc(-c4ccc(OCCCl)cc4)n3)cc2)cc(OC)c1OC [Compound 9r] | 1.37 ± 0.07 | 10.7 ± 0.77 | 4.74 ± 0.27 |  |  | 
7 | 54.4 ± 1.09 |  | 79.5 ± 2.17 |  | 69.8 ± 1.82 | 65.5 ± 2.55 | C1=C/COCc2cc(ccc2OCCN2CCCC2)Nc2nccc(n2)-c2cccc(c2)COC/1 [Pacritinib, reference compound] |  |  |  |  |  | 
8 |  |  |  |  |  |  | Cc1cccc(Nc2ccccc2C(=O)Nc2ccc(C(=O)/C=C/c3ccc(Cl)cc3)cc2)c1C [chloro-derivative of compound X] |  |  |  |  |  | 2170
9 |  |  |  |  |  |  | Cc1cccc(Nc2ccccc2C(=O)Nc2ccc(C(=O)/C=C/c3ccc(N(C)C)cc3)cc2)c1C [dimethylamino-derivative of compound X] |  |  |  |  |  | 2060

Reference: PMC7144330, “2-Thiopyrimidine/chalcone hybrids: design, synthesis, ADMET prediction, and anticancer evaluation as STAT3/STAT5a inhibitors” (Journal of Enzyme Inhibition and Medicinal Chemistry, 2020)
